The values below come from article PMC6766518 (Physiological Reports, 2019).

The subject of one series is patients. To be noted: cited from earlier work.
The target of another series is T1, PTHR1 (Homo sapiens, UniProt Q03431).
T1 sequence (Q03431 27-593): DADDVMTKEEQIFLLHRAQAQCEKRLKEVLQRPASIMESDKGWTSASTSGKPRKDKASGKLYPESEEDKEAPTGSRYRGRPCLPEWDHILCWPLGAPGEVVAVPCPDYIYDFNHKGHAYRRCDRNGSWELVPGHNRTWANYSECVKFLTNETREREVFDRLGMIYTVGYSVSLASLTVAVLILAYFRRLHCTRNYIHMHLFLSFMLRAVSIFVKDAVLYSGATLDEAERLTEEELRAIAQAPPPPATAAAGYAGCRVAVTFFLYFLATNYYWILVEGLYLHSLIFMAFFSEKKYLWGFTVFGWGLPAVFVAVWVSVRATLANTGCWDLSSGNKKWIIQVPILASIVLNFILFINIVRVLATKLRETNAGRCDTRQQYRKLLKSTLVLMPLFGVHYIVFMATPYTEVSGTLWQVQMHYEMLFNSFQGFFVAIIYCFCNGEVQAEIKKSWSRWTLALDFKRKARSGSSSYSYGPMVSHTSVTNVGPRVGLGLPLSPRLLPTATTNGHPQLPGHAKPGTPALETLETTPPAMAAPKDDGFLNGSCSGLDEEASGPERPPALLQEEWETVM
Kind of series: PathHunter eXpress PTHR1 CHO-K1 β-arrestin GPCR assay (β-arrestin recruitment). Format: cell-based. Particulars: CHO‐K1 cells; abaloparatide vs teriparatide; P = 0.02. For orientation: Recruitment of arrestin is a read-out of receptor activation apart from second messengers.

The target of series [1] is T2, PTHR1 (MC3T3‐E1 osteoblast cell line) (Mus musculus, UniProt P41593).
T2 construct: host or cells: MC3T3-E1 subclone 4
T2 sequence (P41593 27-591): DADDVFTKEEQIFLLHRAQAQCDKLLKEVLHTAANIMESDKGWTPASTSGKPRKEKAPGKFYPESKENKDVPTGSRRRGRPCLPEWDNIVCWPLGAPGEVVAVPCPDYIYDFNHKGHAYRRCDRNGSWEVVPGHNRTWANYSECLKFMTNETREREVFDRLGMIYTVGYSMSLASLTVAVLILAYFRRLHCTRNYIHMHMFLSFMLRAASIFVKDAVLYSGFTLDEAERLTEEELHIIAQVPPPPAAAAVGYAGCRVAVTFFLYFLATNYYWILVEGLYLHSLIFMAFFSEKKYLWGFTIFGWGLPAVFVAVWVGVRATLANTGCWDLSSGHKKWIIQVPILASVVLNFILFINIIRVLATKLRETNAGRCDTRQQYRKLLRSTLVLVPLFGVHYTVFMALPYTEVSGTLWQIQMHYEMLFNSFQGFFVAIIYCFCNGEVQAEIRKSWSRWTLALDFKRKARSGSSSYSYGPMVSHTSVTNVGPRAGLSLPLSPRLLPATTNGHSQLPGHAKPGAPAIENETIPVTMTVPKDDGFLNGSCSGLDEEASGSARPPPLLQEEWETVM
Kind of series: Intracellular cAMP generation in MC3T3-E1 osteoblast cells. The class given is cell-based.

Series [2] deals with female C57BL/6J mice (serum Ca^2+ and Pi). Kind of series: Serum Ca2+ and Pi, colorimetric. To be noted: 80 µg/kg/day SC, 30 days; 24 h after last injection; vs vehicle; N = 5 mice/group.
Method: All animal procedures were reviewed and approved by the Institutional Animal Care and Use Committee at James J. Peters Veterans Affairs Medical Center. […] No peptide injection was performed on the day of animal sacrifice.
Blood was collected and serum was separated as described above. Serum Ca^2+ and Pi concentrations were measured using colorimetric Ca^2+ and Pi assay kits (Cat numbers K380 and K410, respectively) as indicated by the manufacturer (BioVision, Milpitas, CA).
For in vivo studies, five mice/group were used. […] Statistical analyses were performed using GraphPad Prism and Microsoft excel. […] The results are presented as the means ± SD. […] For carrying out multiple group comparisons (all in vivo experiments), one‐way analysis of variance (ANOVA) was performed. When ANOVA indicated unequal means, Tukey's honestly significant difference (HSD) posthoc test was performed to determine which means were different to the level of significance. Statistical significance was considered when P value was less than 0.05 (P < 0.05).
Sera were collected at sacrifice (24 h after last injection) and levels of Ca^2+ and Pi were measured using specific colorimetric assays. (A) Serum Ca^2+ levels. (B) Serum Pi levels. The statistical designation directly listed on the top of each bar indicates the significance level in comparison to vehicle. […] The data in all graph are expressed as the means ± SD. […]
The test system of series [3] is patients with osteoporosis. Particulars: ref Neer et al. 2001, cited from earlier work. The source says:
Human life expectancy has increased, thanks to the advances in medical research and the subsequent improvement in health care. As a result, there is a growing demand for better management of the common illnesses of the increasing elderly population. One of these illnesses, osteoporosis, is a common world‐wide bone disorder and a major public health threat for 44 million Americans, 68% of them being women. Osteoporosis accounts for an estimated 1.5 million fractures in the US every year costing over 14 billion dollars. Furthermore, the National Osteoporosis Foundation estimates that 50% of wome ...

A further series has as its system RANKL gene expression. To be noted: in vivo and in vitro; ref Ricarte et al. 2018; cited from earlier work. From the text:
PTHR1 is a member of subclass B seven transmembrane spanning GTP‐binding protein (G‐protein) coupled receptors (GPCR) that activates multiple G‐proteins, primarily the Gs but also Gq/11, Gi, and G12/13 G‐proteins. As a result, PTHR1 activation stimulates multiple downstream pathways and events such as Gs/adenylate cyclase/cAMP/protein kinase A, Gq11/phospholipase C/diacylglycerol‐inositol‐triphosphate‐Ca/protein kinase C, phospholipase D, and Src/β‐arrestin/MAPK pathways and PTHR1 phosphorylation and internalization (Abou‐Samra et al. 1992; Sneddon et al. 2000; Tawfeek et al. 2001; Tawfeek et ...

Where two headings read alike, the source gives them in different places.

As a reminder, the EC50 is the concentration at which the effect is half-maximal. As for `CC[C@H](C)[C@H](NC(=O)[C@H](CO)NC(=O)[C@H](CCCCN)NC(=O)CNC(=O)[C@H](CCCCN)NC(=O)[C@H](CC(=O)O)NC(=O)[C@H](Cc1cnc[nH]1)NC(=O)[C@H](CC(C)C)NC(=O)[C@H](CC(C)C)NC(=O)[C@H](CCC(N)=O)NC(=O)[C@H](Cc1cnc[nH]1)NC(=O)[C@H](CCC(=O)O)NC(=O)[C@H](CO)NC(=O)[C@@H](NC(=O)[C@H](C)N)C(C)C)C(=O)N[C@@H](CCC(N)=O)C(=O)N[C@@H](CC(=O)O)C(=O)N[C@@H](CC(C)C)C(=O)N[C@@H](CCCNC(=N)N)C(=O)N[C@@H](CCCNC(=N)N)C(=O)N[C@@H](CCCNC(=N)N)C(=O)N[C@@H](CCC(=O)O)C(=O)N[C@@H](CC(C)C)C(=O)N[C@@H](CC(C)C)C(=O)N[C@@H](CCC(=O)O)C(=O)N[C@@H](CCCCN)C(=O)N[C@@H](CC(C)C)C(=O)N[C@@H](CC(C)C)C(=O)NC(C)(C)C(=O)N[C@@H](CCCCN)C(=O)N[C@@H](CC(C)C)C(=O)N[C@@H](Cc1cnc[nH]1)C(=O)N[C@H](C(=O)N[C@@H](C)C(N)=O)[C@@H](C)O` [abaloparatide], in the series with patients (human, in vivo), the Patients with hypercalcemia was 3.4%. Further, the “EC50 for β‐arrestin recruitment lower than that of teriparatide” value at PTHR1 came out at 1.6 fold. In addition, in series [1] (0.01–100 nmol/L, 40 min at 37°C, 0.5 mmol/L IBMX, cAMP competitive ELISA, mean ± SD, three independent experiments, p = 0.02 between analogs, read-out: EC50 for cAMP formation), the EC50 came out at 0.3 ± 0.03 nM. For the same molecule, the “Decrease in EC50 value for cAMP formation compared to teriparatide” value in series [1] (abaloparatide vs teriparatide, p = 0.02) is on record as 2.3 fold.

For the molecule `CC[C@H](C)[C@H](NC(=O)[C@H](CCC(=O)O)NC(=O)[C@H](CO)NC(=O)[C@@H](NC(=O)[C@@H](N)CO)C(C)C)C(=O)N[C@@H](CCC(N)=O)C(=O)N[C@@H](CC(C)C)C(=O)N[C@@H](CCSC)C(=O)N[C@@H](Cc1cnc[nH]1)C(=O)N[C@@H](CC(N)=O)C(=O)N[C@@H](CC(C)C)C(=O)NCC(=O)N[C@@H](CCCCN)C(=O)N[C@@H](Cc1cnc[nH]1)C(=O)N[C@@H](CC(C)C)C(=O)N[C@@H](CC(N)=O)C(=O)N[C@@H](CO)C(=O)N[C@@H](CCSC)C(=O)N[C@@H](CCC(=O)O)C(=O)N[C@@H](CCCN=C(N)N)C(=O)N[C@H](C(=O)N[C@@H](CCC(=O)O)C(=O)N[C@@H](Cc1c[nH]c2ccccc12)C(=O)N[C@@H](CC(C)C)C(=O)N[C@@H](CCCN=C(N)N)C(=O)N[C@@H](CCCCN)C(=O)N[C@@H](CCCCN)C(=O)N[C@@H](CC(C)C)C(=O)N[C@@H](CCC(N)=O)C(=O)N[C@@H](CC(=O)O)C(=O)N[C@H](C(=O)N[C@@H](Cc1cnc[nH]1)C(=O)N[C@@H](CC(N)=O)C(=O)N[C@@H](Cc1ccccc1)C(=O)O)C(C)C)C(C)C` [teriparatide], the Patients with hypercalcemia in the series on patients (transient and infrequent event, ref Miller et al. 2018) was 6.4%. The “Elevation in serum Pi” value in series [2] is reported as 50%.

As to “PTH: PTH as administered in cited studies; context points to the amino‐terminal fragment PTH1‐34 (SVSEIQLMHNLGKHLNSMERVEWLRKKLQDVHNF; Parathyroid hormone; UniProt P01270 32-65, looked up, fragment)”, the “Increase in BMD in spine and femur versus bisphosphonates” value in series [3] (men and women with osteoporosis) is “more efficiently than treatment with bisphosphonates”. In addition, in series [3], the “Decrease in risk of vertebral and nonvertebral fractures” value is given as “more than 50%”. In addition, in the series with RANKL gene expression, the RANKL gene expression result is “larger RANKL gene expression in vivo and in vitro”.
